# According to article PMC7115430 (European Journal of Medicinal Chemistry, 2014):
# Read-outs that look alike come from different tables or passages of the source.
# Columns and labels:
# Para-influenza-3 virus = assay: organism not typed; assay type: cell-based; details: Vero, read-out: EC50 Para-influenza-3 virus
# Vero cells = details: microscopically detectable alteration of normal cell morphology
# Punta toro virus = assay: microbe, parasite or virus in culture; assay type: cell-based; details: Vero, read-out: EC50 Punta toro virus
# Reovirus-1 = assay: organism not typed; assay type: cell-based; details: Vero, read-out: EC50 Reovirus-1
# Sindbis virus = assay: microbe, parasite or virus in culture; assay type: cell-based; details: Vero, read-out: EC50 Sindbis virus
# in vitro = details: dog
# Influenza B = assay: microbe, parasite or virus in culture; assay type: cell-based; details: MDCK
# [1] = read-out: Antiviral EC50 Influenza B MTS
# [2] = read-out: Antiviral EC50 Influenza B Visual CPE score
Structure (SMILES),EC50 (Para-influenza-3 virus) [µM],Minimum cytotoxic concentration (Vero cells) [µM],EC50 (Punta toro virus) [µM],EC50 (Reovirus-1) [µM],EC50 (Sindbis virus) [µM],CC50 (in vitro) [µM],EC50 (Influenza B; [1]) [µM],EC50 (Influenza B; [2]) [µM]
Nc1ncnc2c1ncn2C[C@H](O)CO [(S)-DHPA],> 250,>250,> 250,> 250,> 250,–,–,–
NC12CC3CC(CC(C3)C1)C2 [Amantadine],–,–,–,–,–,> 500,–,–
CCC(CC)O[C@@H]1C=C(C(=O)O)C[C@H](N)[C@H]1NC(C)=O [Oseltamivir carboxylate],–,–,–,–,–,> 100,6.2 ± 0.33,4 ± 0.11
NC(=O)c1ncn([C@@H]2O[C@H](CO)[C@@H](O)[C@H]2O)n1 [Ribavirin],112,>250,–,> 250,> 250,–,9.6 ± 0.98,9 ± 0.56
CC(N)C12CC3CC(CC(C3)C1)C2 (stereo not shown) [Rimantadine],–,–,–,–,–,> 500,–,–
